Reference: ChEMBL document CHEMBL6103661, “Identification of Phosphodiesterase-7 Inhibitors with Spiro[[1,3]oxazolo[5,4-f]quinazoline-9,1'-cyclohexan]-7-one Scaffold for the Treatment of Chronic Fatigue” (ACS Med Chem Lett, 2025)

Legend:
[1] = target: 3',5'-cyclic-AMP phosphodiesterase 7B (Homo sapiens, UniProt Q9NP56); assay: Inhibition of human recombinant PDE7B expressed in Sf9 insect cells using FAM-cAMP as substrate preincubated for 15 mins followed by substrate addition and measured after 30 mins by spectrofluorimetry
3',5'-cyclic-AMP phosphodiesterase 7B, sequence (Q9NP56 whole entry): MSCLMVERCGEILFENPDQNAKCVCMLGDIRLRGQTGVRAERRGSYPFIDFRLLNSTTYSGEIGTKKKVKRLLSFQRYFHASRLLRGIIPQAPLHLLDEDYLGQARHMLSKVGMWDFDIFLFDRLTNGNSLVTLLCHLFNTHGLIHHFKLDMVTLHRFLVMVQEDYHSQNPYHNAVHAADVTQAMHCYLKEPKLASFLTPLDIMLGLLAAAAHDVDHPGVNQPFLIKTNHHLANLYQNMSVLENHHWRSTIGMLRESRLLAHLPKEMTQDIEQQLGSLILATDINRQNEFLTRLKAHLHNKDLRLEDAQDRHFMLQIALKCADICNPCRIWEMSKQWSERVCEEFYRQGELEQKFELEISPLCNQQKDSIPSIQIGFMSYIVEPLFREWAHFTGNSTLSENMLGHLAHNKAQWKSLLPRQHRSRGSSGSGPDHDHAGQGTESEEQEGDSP

[2] = target: High affinity 3',5'-cyclic-AMP phosphodiesterase 7A (Homo sapiens, UniProt Q13946); assay: Inhibition of human recombinant PDE7A expressed in Sf9 insect cells using FAM-cAMP as substrate preincubated for 15 mins followed by substrate addition and measured after 30 mins by spectrofluorimetry
High affinity 3',5'-cyclic-AMP phosphodiesterase 7A, sequence (Q13946 whole entry): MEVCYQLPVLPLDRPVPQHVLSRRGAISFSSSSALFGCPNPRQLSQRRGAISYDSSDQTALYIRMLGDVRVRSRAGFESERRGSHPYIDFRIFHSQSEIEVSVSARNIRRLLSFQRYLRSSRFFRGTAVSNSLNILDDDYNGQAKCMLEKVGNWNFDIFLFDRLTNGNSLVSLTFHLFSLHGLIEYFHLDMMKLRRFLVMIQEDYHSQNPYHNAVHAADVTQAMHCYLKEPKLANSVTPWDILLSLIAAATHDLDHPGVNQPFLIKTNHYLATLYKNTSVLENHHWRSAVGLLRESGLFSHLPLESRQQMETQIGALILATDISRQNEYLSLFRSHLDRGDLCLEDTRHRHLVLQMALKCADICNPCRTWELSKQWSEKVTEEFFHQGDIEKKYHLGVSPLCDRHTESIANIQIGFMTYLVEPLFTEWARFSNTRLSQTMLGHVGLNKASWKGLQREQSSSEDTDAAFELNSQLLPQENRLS

Soleus muscle = assay: Protection against 12.5 mM KCl-induced loss of contractile force in Sprague-Dawley rat soleus muscle assessed as mean residual contractile force at 1 uM pretreated for 10 mins followed by KCl stimulation at 5 mins interval for 30 mins and measured in presence of salbutamol by isometric force transducer method relative to control; type: functional; conditions: time 40 min

## CN(C)C1CCN(C(=O)c2cc3cc(Cl)c4c(c3o2)C2(CCCCC2)NC(=O)N4)CC1
[1]
  IC50: 58 nM
[2]
  IC50: 28 nM
Soleus muscle
  Activity: 73.7%

## CN(C)C(=O)CNCc1nc2cc(Cl)c3c(c2o1)C1(CCCCC1)NC(=O)N3
[2]
  IC50: 5.57 nM
Soleus muscle
  Activity: 60.5%
